Assays:
HDAC9 = HDAC9 (Homo sapiens, UniProt Q9UKV0); experiment: in vitro HDAC inhibition assay (fluorescence); assay type: biochemical; details: 1 h pre-incubation; 2 μM HDAC Substrate Class 2a; read-out: IC50 (μM) HDAC9
Method: Briefly, all of the compounds are dissolved in DMSO. A series of dilutions of the compounds were prepared with 10% DMSO in HDAC assay buffer and 5 μl of the dilution was added to a 50 μl reaction so that the final concentration of DMSO is 1% in all of reactions. The compounds were pre-incubated in duplicate at RT for 1 hour in a mixture containing HDAC assay buffer, 5 μg BSA, HDAC enzyme (see Table 7) and a the particular HDACi. After 1 hour, the enzymatic reactions were initiated by the addition of HDAC substrate (BPS Bioscience) to a final concentration of 10 μM or 2 μM. The enzymatic reaction proceeded for 30 minutes at 37° C.
HDAC activity assays were performed in duplicates at each concentration. The fluorescent intensity data were analyzed using the computer software, Graphpad Prism. In the absence of the compound, the fluorescent intensity (Ft) in each data set was defined as 100% activity. In the absence of HDAC, the fluorescent intensity (Fb) in each data set was defined as 0% activity. The percent activity in the presence of each compound was calculated according to the following equation: % activity=(F−Fb)/(Ft−Fb), where F=the fluorescent intensity in the presence of the compound.
The values of % activity versus a series of compound concentrations were then plotted using non-linear regression analysis of Sigmoidal dose-response curve generated with the equation Y=B+(T−B)/1+10^((Log EC50-X)×Hill Slope), where Y=percent activity, B=minimum percent activity, T=maximum percent activity, X=logarithm of compound and Hill Slope=slope factor or Hill coefficient. The IC50 value was determined by the concentration causing a half-maximal percent activity.

[1] = tested on: Histone 3 acetylation in peripheral blood mononuclear cells; experiment: H3 acetylation in PBMC by flow cytometry; assay type: cell-based, human
Text: Percentage of cells with H3 acetylation, as determined by flow cytometry, is shown.
Since H3 acetylation is a pharmacodynamic biomarker of Nstat activity, acetylation of H3 was examined in treated cells.

HDAC 6 = biological target: T1, HDAC 6 (Homo sapiens, UniProt Q9UBN7); details: descriptive statement; cited from earlier work
T1 sequence (Q9UBN7 1-1215): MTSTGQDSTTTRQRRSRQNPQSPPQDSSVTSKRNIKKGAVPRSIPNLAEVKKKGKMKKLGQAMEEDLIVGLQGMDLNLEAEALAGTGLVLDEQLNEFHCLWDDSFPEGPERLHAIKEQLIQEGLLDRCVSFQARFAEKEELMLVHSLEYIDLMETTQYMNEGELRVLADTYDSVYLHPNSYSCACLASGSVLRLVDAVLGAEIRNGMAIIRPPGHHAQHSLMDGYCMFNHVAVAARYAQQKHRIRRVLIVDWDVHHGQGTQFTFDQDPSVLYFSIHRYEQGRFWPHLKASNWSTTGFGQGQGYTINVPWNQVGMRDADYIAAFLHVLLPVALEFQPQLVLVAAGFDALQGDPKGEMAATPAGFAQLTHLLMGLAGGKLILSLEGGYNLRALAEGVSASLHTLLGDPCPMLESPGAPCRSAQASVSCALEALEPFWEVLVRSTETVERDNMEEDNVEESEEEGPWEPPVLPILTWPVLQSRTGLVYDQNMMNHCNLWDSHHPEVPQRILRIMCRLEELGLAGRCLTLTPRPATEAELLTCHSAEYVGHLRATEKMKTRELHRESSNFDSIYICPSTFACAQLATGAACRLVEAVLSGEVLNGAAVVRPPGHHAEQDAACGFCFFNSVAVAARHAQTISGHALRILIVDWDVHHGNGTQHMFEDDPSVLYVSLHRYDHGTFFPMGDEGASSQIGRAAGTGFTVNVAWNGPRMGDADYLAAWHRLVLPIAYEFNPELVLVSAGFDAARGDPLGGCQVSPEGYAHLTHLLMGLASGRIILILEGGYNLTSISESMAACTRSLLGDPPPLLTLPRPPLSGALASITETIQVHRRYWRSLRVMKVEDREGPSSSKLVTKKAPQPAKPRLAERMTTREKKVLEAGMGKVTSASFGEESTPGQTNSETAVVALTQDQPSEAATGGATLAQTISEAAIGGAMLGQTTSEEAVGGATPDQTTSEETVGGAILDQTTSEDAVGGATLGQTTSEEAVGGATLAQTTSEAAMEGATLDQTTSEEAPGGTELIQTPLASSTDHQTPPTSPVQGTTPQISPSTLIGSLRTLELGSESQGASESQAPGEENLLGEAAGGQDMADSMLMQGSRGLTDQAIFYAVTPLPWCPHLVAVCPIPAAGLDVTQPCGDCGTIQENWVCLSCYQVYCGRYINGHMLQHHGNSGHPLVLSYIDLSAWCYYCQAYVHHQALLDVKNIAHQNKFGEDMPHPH

Sequence of HDAC9 (Q9UKV0 whole entry): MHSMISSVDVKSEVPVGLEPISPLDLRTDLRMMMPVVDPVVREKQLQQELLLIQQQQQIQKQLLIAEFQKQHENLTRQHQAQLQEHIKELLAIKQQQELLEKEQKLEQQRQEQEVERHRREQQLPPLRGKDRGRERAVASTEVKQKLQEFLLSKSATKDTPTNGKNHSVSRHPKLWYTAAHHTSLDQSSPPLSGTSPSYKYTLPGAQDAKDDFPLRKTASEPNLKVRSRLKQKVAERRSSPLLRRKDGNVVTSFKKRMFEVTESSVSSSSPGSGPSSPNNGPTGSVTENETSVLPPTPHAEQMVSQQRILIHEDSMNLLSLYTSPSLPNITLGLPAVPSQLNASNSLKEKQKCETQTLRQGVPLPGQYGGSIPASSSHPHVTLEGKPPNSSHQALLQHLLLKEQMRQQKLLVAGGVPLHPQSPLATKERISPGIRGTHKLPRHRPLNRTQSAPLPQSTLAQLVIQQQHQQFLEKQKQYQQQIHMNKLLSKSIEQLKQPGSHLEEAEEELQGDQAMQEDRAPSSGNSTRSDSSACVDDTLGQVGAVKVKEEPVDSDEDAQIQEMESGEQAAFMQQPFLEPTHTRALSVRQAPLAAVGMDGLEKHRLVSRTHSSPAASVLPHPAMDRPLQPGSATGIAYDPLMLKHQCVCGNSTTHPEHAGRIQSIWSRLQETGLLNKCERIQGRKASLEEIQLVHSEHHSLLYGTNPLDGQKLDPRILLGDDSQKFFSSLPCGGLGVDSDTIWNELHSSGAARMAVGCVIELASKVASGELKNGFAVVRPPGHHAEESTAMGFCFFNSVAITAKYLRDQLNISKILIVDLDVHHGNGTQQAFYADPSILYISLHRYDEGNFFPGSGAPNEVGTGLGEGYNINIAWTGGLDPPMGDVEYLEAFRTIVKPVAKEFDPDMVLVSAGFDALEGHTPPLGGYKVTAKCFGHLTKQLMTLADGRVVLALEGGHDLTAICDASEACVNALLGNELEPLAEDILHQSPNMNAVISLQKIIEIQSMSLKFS

## O=C(NO)c1cnc(N2C[C@@H]3[C@H](C2)[C@H]3NCc2ccc3cc(F)ccc3n2)nc1 [Nanatinostat, 2-((1R,5S,6s)-6-(((6-fluoroquinolin-2-yl)methyl)amino)-3-azabicyclo[3.1.0]hexan-3-yl)-N-hydroxypyrimidine-5-carboxamide]
HDAC9
  IC50: 0.44 µM
[1]; PBMC of healthy donors, time-course, doses down to 10 nM, FIG. 3
  Duration of effect on H3 acetylation: long-lasting
[1]; PBMC of healthy volunteers, even at 100 nM, FIG. 2
  Potency in inducing elevated levels of Histone 3 acetylation: much more potent than entinostat
HDAC 6
  Activity against HDAC 6: not HDAC 6

— patent US10953011B2, “Methods of treating virally associated cancers with histone deacetylase inhibitors” (priority 2019, dated 2021)
